Key:
[1] = test system: α-methylphenylalanine induced phenylketonuria model of suckling rats; assay: Therapeutic effect in α-methylphenylalanine induced phenylketonuria model of suckling rats; assay type: in vivo, SD suckling rats
Procedure: The phenylpyruvate concentration and ratio of phenylalanine/tyrosine in blood are the key indicators for evaluating the therapeutic effect in phenylketonuria model of suckling rats.
SD suckling rats (1 day old) were purchased from Beijing Vital River Laboratory Animal Technology Co., Ltd. All the animals and female rats were fed in SPF environment (21±2° C., 12-hour photoperiod) and had free access to food and water during the experiment. Berberine was purchased from the J&K Technology Co. LTD (Beijing, China). Phenylpyruvate, phenylalanine, and tyrosine were purchased from Solarbio Science&Technology Co. LTD (Beijing, China). α-Methylphenylalanine was purchased from Sinuokai Technology Co. LTD (Nanjing, China).
High-performance liquid chromatography-triple quadrupole tandem mass spectrometry (LC-MS/MS 8050, Shimadzu Corporation, Japan) was used to quantitatively determine the concentration of dopa, phenylalanine, tyrosine, and phenylpyruvate. Alltima C18 (5 μm, 4.6×150 mm) chromatography column was used in the experiment, and the column temperature was maintained at 40° C. The mobile phase to measure L-dopa was water-formic acid (100: 0.2 v/v) and acetonitrile. The condition of gradient elution was as follows (A: B, 0 min, 90:10; 2.5 min, 80:20; 2.51 min, 5:95; 5 min, 5:95; 5.01 min, 90:10; 8 min 90:10). The flow rate was 0.8 mL/min. Multi-reaction monitoring mode was used for quantization, and the quantitative ion pair of dopa was 198.15→[…] (m/z). Phenylalanine, tyrosine, and phenylpyruvate level were determined using Alltima C18 (5 μm, 4.6×150 mm) chromatography column at column temperature of 40° C. The mobile phase contained water-formic acid (100:0.1 v/v) and methanol. The condition of gradient elution was as follows (A: B, 0 min, 90:10; 1 min, 90:10; 1.01 min, 60:40; 5 min, 5:95; 7 min, 5:95; 7.01 min 90:10; 10 min 90:10). The flow rate was 0.8 mL/min. Multi-reaction monitoring mode was used for quantization. The quantitative ion pair was: phenylalanine, 165.85→120.20; tyrosine, 182.00→136.10; phenylpyruvate, 163.00→91.00.
Experimental design: The animals were divided into 6 groups, including: the normal control group, the model group, the low-dose of oral berberine treated model group, the high-dose of oral berberine treated model group, the intraperitoneal berberine treated model group, and the oral berberine treated pseudo-germ-free model group. The establishment of model started at 2 days old of SD suckling rats, which were administrated for 10 days, and then they were treated for 7 days.
(1) Normal control group: normal saline (s.c.).
(2) Model group: a-methylphenylalanine (s.c. 50 mg/kg/d), and phenylalanine (s.c. 200 mg/kg/d);
(3) Low-dose of oral berberine treated model group: α-methylphenylalanine (s.c. 50 mg/kg/d), phenylalanine (s.c. 200 mg/kg/d), berberine (oral, 100 mg/kg/d);
(4) High-dose of oral berberine treated model group: α-methylphenylalanine (s.c. 50 mg/kg/d), phenylalanine (s.c. 200 mg/kg/d), berberine (oral, 200 mg/kg/d);
(5) Intraperitoneal berberine treated model group: α-methylphenylalanine (s.c. 50 mg/kg/d), phenylalanine (s.c. 200 mg/kg/d), berberine (i.p. 20 mg/kg/d);
(6) Oral berberine treated pseudo-germ-free model group: α-methylphenylalanine (s.c. 50 mg/kg/d), phenylalanine (s.c. 200 mg/kg/d), berberine (oral, 200 mg/kg/d); Antibiotic dose: cefadroxil (100 mg/kg/d), oxytetracycline (300 mg/kg/d), erythromycin (300 mg/kg/d).

[2] = test system: ICR mice; assay: Effect of dihydroberberine on blood phenylpyruvate and tyrosine in ICR mice; assay type: in vivo
Procedure: The concentrations of phenylpyruvate and tyrosine in blood are the key indicators to evaluate the therapeutic effect for phenylketonuria.
(§1) ICR mice (male, 20±2 g) were purchased from Beijing Vital River Laboratory Animal Technology Co., Ltd. All the animals were fed in SPF environment (21±2° C., 12-hour photoperiod) and had free access to food and water during the experiment. Berberine was purchased from the J&K Technology Co. LTD (Beijing, China). Dihydroberberine was purchased from the Mansite Biology & Technology Co. LTD (Chengdu, China). Phenylpyruvate, phenylalanine, and tyrosine were purchased from Solarbio Science&Technology Co. LTD (Beijing, China).
Experimental design: The animals were divided into three groups, including the control group, the 200 mg/kg dihydroberberine oral treated group at 12 h, the 200 mg/kg dihydroberberine oral treated group at 24 h.
(§2) (1) The control group: saline 0.2 mL (oral);
(2) The 100 mg/kg dihydroberberine singe oral treated group at 12 h: 100 mg/kg […] (oral);
(3) The 100 mg/kg dihydroberberine singe oral treated group at 24 h: 100 mg/kg […] (oral).

[3] = test system: ICR mice; assay: Effect of jatrorrhizine on blood phenylpyruvate and tyrosine in ICR mice; assay type: in vivo
Procedure: The concentrations of phenylpyruvate and tyrosine in blood are the key indicators to evaluate the therapeutic effect for phenylketonuria in children.
as §1, with “China).” for “China). Dihydroberberine was purchased from the Mansite Biology & Technology Co. LTD (Chengdu, China).”
Experimental design: The animals were divided into three groups, including the control group, the 200 mg/kg jatrorrhizine oral treated group at 12 h, the 200 mg/kg jatrorrhizine oral treated group at 24 h.
as §2
(2) The 200 mg/kg jatrorrhizine singe oral treated group at 12 h: 200 mg/kg jatrorrhizine (oral);
(3) The 200 mg/kg jatrorrhizine single oral treated group at 24 h: 200 mg/kg jatrorrhizine (oral).

**Q.** For `COc1ccc2cc3[n+](cc2c1OC)CCc1cc2c(cc1-3)OCO2` [berberine], which “Phenylalanine/tyrosine ratio in blood” value ([1]; intraperitoneal injection 20 mg/kg/d (FIG. 2)) is on record?
**A.** not significantly changed

**Q.** What about the “Concentration of dopa in brain” value ([1]; intraperitoneal injection 20 mg/kg/d (FIG. 3)) of the same compound?
**A.** not significantly changed

**Q.** And the “Concentration of dopamine in brain” value ([1]; intraperitoneal injection 20 mg/kg/d (FIG. 4))?
**A.** not significantly changed

**Q.** What about the “Phenylpyruvate level in blood” value ([1]; intraperitoneal injection 20 mg/kg/d, 7 days (FIG. 1)) of the same compound?
**A.** not significantly changed

**Q.** What about the “Phenylpyruvate level in blood” value ([1]; oral 100 and 200 mg/kg/d for 7 days, vs model group, dose-dependent (FIG. 1)) of the same compound?
**A.** significantly decreased

**Q.** And the “Phenylalanine/tyrosine ratio in blood” value ([1]; oral 100 and 200 mg/kg/d, vs model group, dose-dependent (FIG. 2))?
**A.** significantly decreased

**Q.** And the “Concentration of dopa in brain” value ([1]; oral 100 and 200 mg/kg/d, vs model group, dose-dependent (FIG. 3))?
**A.** significantly increased

**Q.** What about the “Concentration of dopamine in brain” value ([1]; oral 100 and 200 mg/kg/d, vs model group, dose-dependent (FIG. 4)) of the same compound?
**A.** significantly increased

**Q.** And the “Level of tyrosine in blood” value ([1]; oral administration)?
**A.** increase

**Q.** And the “Phenylpyruvate level in blood” value ([1]; pseudo-germ-free (antibiotic treated) model, oral 200 mg/kg/d (FIG. 1))?
**A.** not significantly changed

**Q.** What about the “Phenylalanine/tyrosine ratio in blood” value ([1]; pseudo-germ-free model, oral 200 mg/kg/d (FIG. 2)) of the same compound?
**A.** not significantly changed

**Q.** And the “Concentration of dopa in brain” value ([1]; pseudo-germ-free model, oral 200 mg/kg/d (FIG. 3))?
**A.** not significantly changed

**Q.** And the “Concentration of dopamine in brain” value ([1]; pseudo-germ-free model, oral 200 mg/kg/d (FIG. 4))?
**A.** not significantly changed

**Q.** For `COc1ccc2c(c1OC)CN1CCc3cc4c(cc3C1=C2)OCO4` [dihydroberberine], which “Ratio of phenylalanine/tyrosine in blood” value ([2]; oral administration) is on record?
**A.** reduce

**Q.** And the “Tyrosine level in blood” value ([2]; single oral 100 mg/kg (200 mg/kg), 12 h and 24 h, vs control (FIG. 7))?
**A.** significantly increased

**Q.** And the “Phenylpyruvate level in blood” value ([2]; single oral 100 mg/kg (200 mg/kg), 12 h and 24 h, vs control (FIG. 8))?
**A.** significantly decreased

**Q.** How did the “Ratio of phenylalanine/tyrosine in blood” value ([3]; oral administration) turn out when `COc1cc2c(cc1O)CC[n+]1cc3c(OC)c(OC)ccc3cc1-2` [jatrorrhizine] was run?
**A.** reduce

**Q.** What about the “Tyrosine level in blood” value ([3]; single oral 200 mg/kg, 12 h and 24 h, vs control (FIG. 5)) of the same compound?
**A.** significantly increased

**Q.** And the “Phenylpyruvate level in blood” value ([3]; single oral 200 mg/kg, 12 h and 24 h, vs control (FIG. 6))?
**A.** significantly decreased

Reference: patent US20200230118A1, “USE OF BERBERINE OR ACTIVE METABOLITE THEREOF IN PREPARATION OF DRUG FOR PREVENTING AND/OR TREATING PHENYLKETONURIA” (Institute of Materia Medica, Chinese Academy of Medical …, priority 2017, published 2020)
